In PMC8658795 (2021):

System: DNA duplex (DNA, duplex) CAATCGGATCGAATTCGATCCGATTG
Assay: fluorescent intercalator displacement
Conditions: K+ (50 mM KCl, 10 mM KH2PO4); 1 mM K2EDTA, pH 7.4, room temperature; thiazole orange 0.5 μM displaced (Kf 3 × 10^6 M^-1); duplex 0.25 μM

Row | Structure (SMILES) | Kb
1 | NN1C(=O)c2c(c3c4ccccc4n([C@@H]4OC[C@H](O)[C@H](O)[C@H]4O)c3c3[nH]c4ccccc4c23)C1=O | (1.24 ± 0.07) × 10^6 M^-1
2 | O=C(NN1C(=O)c2c(c3c4ccccc4n([C@H]4OC[C@@H](O)[C@H](O)[C@H]4O)c3c3[nH]c4ccccc4c23)C1=O)c1ccccn1 | (2.52 ± 0.4) × 10^5 M^-1
